In patent publication US11939345B2, “Physiologically stable fluorophore and performing fluorescence probing” (Government of the United States of America, as represented …, priority 2019, dated 2024):

Key:
[1] = pH stability of fluorescence intensity; type: physicochemical; conditions: Example 2; FIG. 22B
Protocol: With regard to assessment of photoluminescence properties of labeled CNF, photoluminescence excitation (PLE) spectroscopy maps and line scans were obtained with spectrofluorometer and corrected for the instrument's source spectral distribution and detector spectral response. Excitation wavelengths were scanned in 5 nm increments using a 450 W xenon lamp through a 2 nm slit. Emitted light was collected at 90° and measured using a liquid N2-cooled InGaAs detector over 2 nm increments through a 2 nm slit. The fluorescence emission spectra of mDTEB-CNF and mDTEB-seCNF were created using an excitation wavelength (λEx) of 514 nm with emission wavelengths from 530 nm to 650 nm. […] The pH stability of mDTEB-CNF and mDTEB-seCNF were evaluated by measuring fluorescence intensity using a Nanolog-3 spectrofluorometer. Buffered solutions containing 0.5 mg/mL labeled CNF in the range of pH 2 to 10 were equilibrated to 37° C., and the fluorescence intensity was measured at λEm 540 nm. […] The photoluminescence spectra of autoclaved washed fibers, the collected supernatants, and the controls were recorded using the spectrofluorometer as described above. The concentration-dependence of the labeled CNF fluorescence was assessed by measuring the fluorescence intensity of labeled CNF diluted to concentrations between 2 μg/mL and 2 mg/mL using PBS buffer or deionized water. […]

[2] = Photoluminescence excitation/emission and absorption spectra; type: physicochemical
Protocol: With regard to assessment of photoluminescence properties of labeled CNF, photoluminescence excitation (PLE) spectroscopy maps and line scans were obtained with spectrofluorometer and corrected for the instrument's source spectral distribution and detector spectral response. Excitation wavelengths were scanned in 5 nm increments using a 450 W xenon lamp through a 2 nm slit. Emitted light was collected at 90° and measured using a liquid N2-cooled InGaAs detector over 2 nm increments through a 2 nm slit. The fluorescence emission spectra of mDTEB-CNF and mDTEB-seCNF were created using an excitation wavelength (λEx) of 514 nm with emission wavelengths from 530 nm to 650 nm. An excitation plot was created with an emission wavelength (λEm) of 540 nm with excitation wavelengths from 400 nm to 530 nm. The UV-Vis absorption spectra were collected with a UV-Vis-NIR spectrophotometer. The pH stability of mDTEB-CNF and mDTEB-seCNF were evaluated by measuring fluorescence intensity using a Nanolog-3 spectrofluorometer. Buffered solutions containing 0.5 mg/mL labeled CNF in the range of pH 2 to 10 were equilibrated to 37° C., and the fluorescence intensity was measured at λEm 540 nm. […] The photoluminescence spectra of autoclaved washed fibers, the collected supernatants, and the controls were recorded using the spectrofluorometer as described above. The concentration-dependence of the labeled CNF fluorescence was assessed by measuring the fluorescence intensity of labeled CNF diluted to concentrations between 2 μg/mL and 2 mg/mL using PBS buffer or deionized water. Fluorescence intensity was recorded on a multimode microplate reader equipped with monochromator optics at λEx 514 nm and λEm 540 nm. […] Each suspension was measured in triplicate using 200 μL samples. […] For fluorescence images, dilute labeled CNF suspensions were deposited onto an ultraviolet ozone (UVO)-treated glass slides and dried at room temperature. […]
Photoluminescence properties (excitation and emission spectra) of the mDTEB dye and mDTEB-seCNF were recorded using fluorescence spectroscopy. […]

emission intensity as a function of pH [1]: stable to a wide range of pH values
Stokes shift [2]: 36 nm
absorbance peak ([2]; FIG. 22A, in water): 514 nm
maximum emission intensity wavelength / emission peak ([2]; fluorescence spectroscopy): 540 nm
Compound: CCC1=C(C)C2=C(c3ccc(Oc4nc(Cl)nc(Cl)n4)cc3)c3c(C)c(CC)c(C)n3[B-](F)(F)[N+]2=C1C [mDTEB, 10-(4-((4,6-dichloro-1,3,5-triazin-2-yl)oxy)phenyl)-2,8-diethyl-5,5-difluoro-1,3,7,9-tetramethyl-5H-414,514-dipyrrolo[1,2-c:2′,1′-f] [1,3,2]diazaborinine]
